Activity calls are given as the source filed them. The calls are words filed in the database; no cut-off is given here.
Key:
[1] = Induction of Pa9 gene expression in human skeletal muscle cells at 1 nM by RT-PCR; assay type: functional
[2] = Half life in Sprague-Dawley rat at 0.3 mg/kg administered as multiple dose after 8 days; assay type: ADME, organism-based; parameters: dose 0.3 mg/kg; conditions: in vivo
Mus musculus [3] = test: Decrease in non esterified free fatty acid level i in po dosed hApoA1 transgenic mouse after 7 days; assay type: functional, organism-based
[4] = AUC in ob/ob C57BL/6J-leptin deficient obese mouse at 1 mg/kg administered as multiple dose after 11 days; assay type: ADME, organism-based; parameters: dose 1 mg/kg; conditions: plasma
[5] = Cmax in Sprague-Dawley rat at 0.1 mg/kg administered as multiple dose after 8 days; assay type: ADME, organism-based; parameters: dose 0.1 mg/kg; conditions: in vivo
Canis familiaris [6] = test: Effect on aspartate aminotransferase level in Beagle dog serum at 0.3 to 3 mg/kg, po/day after 7 days; assay type: functional, organism-based; conditions: Canis lupus familiaris
[7] = AUC in Beagle dog at 10 mg/kg administered as multiple dose after 7 days; assay type: ADME, organism-based, Canis lupus familiaris; parameters: dose 10 mg/kg; conditions: plasma
Mus musculus [8] = test: […] effect of ob/ob C57BL/6J-leptin deficient obese mouse assessed as reduction in serum glucose level at 0.1 to 3 mg/kg, po after 11 days; assay type: functional; parameters: scale not given: the % may be the effect or the level left; conditions: dose mg/kg 0.1-3
[9] = Cmax in Sprague-Dawley rat at 1 mg/kg administered as multiple dose after 8 days; assay type: ADME, organism-based; parameters: dose 1 mg/kg; conditions: in vivo
Canis familiaris [10] = test: Increase in aspartate aminotransferase level in Beagle dog serum at 10 mg/kg, po/day after 7 days; assay type: functional, Canis lupus familiaris
[11] = molecular target: T1, Peroxisome proliferator-activated receptor alpha (Homo sapiens, UniProt Q07869); test: Agonist activity at human PPARalpha-Gal4 in HEK293 cells by luciferase reporter assay; assay type: functional, cell-based
T1 sequence (Q07869 whole entry): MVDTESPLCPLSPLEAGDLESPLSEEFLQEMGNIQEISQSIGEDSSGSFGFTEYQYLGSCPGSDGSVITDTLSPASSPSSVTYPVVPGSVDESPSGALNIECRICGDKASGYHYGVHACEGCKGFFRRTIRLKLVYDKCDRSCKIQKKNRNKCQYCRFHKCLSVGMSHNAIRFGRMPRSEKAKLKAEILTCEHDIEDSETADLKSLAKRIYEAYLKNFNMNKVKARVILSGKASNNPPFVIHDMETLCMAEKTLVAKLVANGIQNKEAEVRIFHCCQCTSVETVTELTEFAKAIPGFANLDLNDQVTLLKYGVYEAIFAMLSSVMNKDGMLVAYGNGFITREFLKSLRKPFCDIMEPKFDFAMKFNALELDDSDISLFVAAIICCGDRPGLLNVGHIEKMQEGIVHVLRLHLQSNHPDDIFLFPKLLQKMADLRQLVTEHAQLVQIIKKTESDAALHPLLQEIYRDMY

[12] = AUC in ob/ob C57BL/6J-leptin deficient obese mouse at 0.1 mg/kg administered as multiple dose after 11 days; assay type: ADME, organism-based; parameters: dose 0.1 mg/kg; conditions: plasma
[13] = Induction of CPT1 gene expression in human skeletal muscle cells at 1000 nM by RT-PCR; assay type: functional
[14] = Cmax in ob/ob C57BL/6J-leptin deficient obese mouse at 0.3 mg/kg administered as multiple dose after 11 days; assay type: ADME, organism-based; parameters: dose 0.3 mg/kg; conditions: in vivo
[15] = Half life in ob/ob C57BL/6J-leptin deficient obese mouse at 3 mg/kg administered as multiple dose after 11 days; assay type: ADME, organism-based; parameters: dose 3 mg/kg; conditions: in vivo
[16] = Cmax in Beagle dog at 1 mg/kg administered as multiple dose after 7 days; assay type: ADME, organism-based, Canis lupus familiaris; parameters: dose 1 mg/kg; conditions: in vivo
[17] = Half life in Beagle dog at 10 mg/kg administered as single dose on day 7; assay type: ADME, organism-based, Canis lupus familiaris; parameters: dose 10 mg/kg; conditions: in vivo
[18] = molecular target: T2, Glucocorticoid receptor (Homo sapiens) (UniProt P04150); test: Activity at glucocorticoid receptor
T2 sequence (whole entry): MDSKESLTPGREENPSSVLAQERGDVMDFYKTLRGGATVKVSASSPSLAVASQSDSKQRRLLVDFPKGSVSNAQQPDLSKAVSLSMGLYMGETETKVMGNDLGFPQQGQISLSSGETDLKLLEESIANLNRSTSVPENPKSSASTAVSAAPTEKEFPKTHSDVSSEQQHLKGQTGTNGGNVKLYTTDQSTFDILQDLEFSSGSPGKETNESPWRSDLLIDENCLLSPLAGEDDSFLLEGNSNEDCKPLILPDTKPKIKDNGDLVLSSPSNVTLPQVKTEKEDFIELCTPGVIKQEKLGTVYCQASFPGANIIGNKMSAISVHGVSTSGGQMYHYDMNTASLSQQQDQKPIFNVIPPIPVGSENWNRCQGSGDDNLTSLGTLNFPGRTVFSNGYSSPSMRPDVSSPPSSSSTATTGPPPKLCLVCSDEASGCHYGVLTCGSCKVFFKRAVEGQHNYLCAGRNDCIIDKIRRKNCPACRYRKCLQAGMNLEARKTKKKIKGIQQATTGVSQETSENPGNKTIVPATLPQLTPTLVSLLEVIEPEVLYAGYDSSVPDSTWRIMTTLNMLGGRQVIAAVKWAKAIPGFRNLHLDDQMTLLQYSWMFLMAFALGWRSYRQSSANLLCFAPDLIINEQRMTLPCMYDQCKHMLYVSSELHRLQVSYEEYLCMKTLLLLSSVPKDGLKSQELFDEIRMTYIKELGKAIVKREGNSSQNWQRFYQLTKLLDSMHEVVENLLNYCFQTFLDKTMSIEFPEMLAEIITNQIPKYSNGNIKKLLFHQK

[19] = Cmax in ob/ob C57BL/6J-leptin deficient obese mouse at 3 mg/kg administered as multiple dose after 11 days; assay type: ADME, organism-based; parameters: dose 3 mg/kg; conditions: in vivo
Mus musculus [20] = test: […] effect of ob/ob C57BL/6J-leptin deficient obese mouse assessed as increase in liver weight at 0.1 to 3 mg/kg, po after 11 days; assay type: functional; conditions: dose mg/kg 0.1-3
Mus musculus [21] = test: […] effect of ob/ob C57BL/6J-leptin deficient obese mouse assessed as reduction in body weight at 0.1 to 3 mg/kg, po after 11 days; assay type: functional, organism-based
Mus musculus [22] = test: […] effect of ob/ob C57BL/6J-leptin deficient obese mouse assessed as reduction in serum insulin level at 0.1 to 3 mg/kg, po after 11 days; assay type: functional; parameters: scale not given: the % may be the effect or the level left; conditions: dose mg/kg 0.1-3
[23] = AUC in Sprague-Dawley rat at 3 mg/kg administered as multiple dose after 8 days; assay type: ADME, organism-based; parameters: dose 3 mg/kg; conditions: plasma
Rattus norvegicus = test: Increase in HDL cholesterol level in po dosed hypercholesterolemic Sprague-Dawley rat serum after 8 days; assay type: functional
[24] = AUC in Beagle dog at 0.3 mg/kg administered as multiple dose after 7 days; assay type: ADME, organism-based, Canis lupus familiaris; parameters: dose 0.3 mg/kg; conditions: plasma
[25] = Half life in Sprague-Dawley rat at 3 mg/kg administered as multiple dose after 8 days; assay type: ADME, organism-based; parameters: dose 3 mg/kg; conditions: in vivo

Cc1cc(SCc2nc(-c3ccc(Cl)c(Cl)c3)ns2)ccc1OC(C)(C)C(=O)O
Fold change [1]: 3.8
half-life [2]: 5.1 h
Activity (Mus musculus [3]): Active
AUC at 264 h [4]: 47600 ng·h/mL
Cmax [5]: 82 ng/mL
Activity (Canis familiaris [6]): inactive
AUC at 168 h [7]: 61600 ng·h/mL
Activity (Mus musculus [8]): 52%
Cmax [9]: 1360 ng/mL
Fold change (Canis familiaris [10]): 1.7
EC50 [11]: 100 nM
AUC at 264 h [12]: 2780 ng·h/mL
Fold change [13]: 7.8
Cmax [14]: 1840 ng/mL
half-life [15]: 6.7 h
Cmax [16]: 1530 ng/mL
half-life [17]: 5.8 h
Activity [18]: inactive
Cmax [19]: 26300 ng/mL
Activity (Mus musculus [20]): 65%
Activity (Mus musculus [21]): Active
Activity (Mus musculus [22]): 50%
AUC at 192 h [23]: 27100 ng·h/mL
Activity (Rattus norvegicus): 45 mg/dL
AUC at 168 h [24]: 2650 ng·h/mL
half-life [25]: 7.1 h
